Measurements as given in patent publication US9624182B2, “Compounds as lysophosphatidic acid receptor antagonists” (Amira Pharmaceuticals, Inc., priority 2009, dated 2017).

molecular target: T1, human LPA1 (Homo sapiens, UniProt Q92633); assay: LPA1 calcium flux assay; type: cell-based; settings: CHO cells expressing human LPA1, stimulated with 10 nM LPA; read-out: HLPA1 Ca Flux IC50
T1 construct: the full-length cDNA for human LPA1 was obtained by PCR of the reverse transcription reaction; expressed in transfected cells
T1 sequence (Q92633 whole entry): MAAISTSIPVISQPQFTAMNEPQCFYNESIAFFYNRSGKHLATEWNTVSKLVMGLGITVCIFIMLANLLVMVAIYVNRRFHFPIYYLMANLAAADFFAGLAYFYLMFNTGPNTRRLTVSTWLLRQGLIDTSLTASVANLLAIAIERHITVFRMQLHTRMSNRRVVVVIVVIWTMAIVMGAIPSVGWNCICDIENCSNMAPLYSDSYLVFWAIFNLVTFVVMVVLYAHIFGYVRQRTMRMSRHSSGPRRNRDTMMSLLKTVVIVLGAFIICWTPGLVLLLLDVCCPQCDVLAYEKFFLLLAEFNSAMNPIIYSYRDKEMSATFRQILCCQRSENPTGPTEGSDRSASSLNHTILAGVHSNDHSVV
Outline: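 Antagonism measured as block of 10 nM LPA-evoked calcium rise in stable human LPA1-CHO cells. After overnight serum-free culture and 1 h dye loading at 37 °C (buffer with 0.3% fatty-acid-free albumin), compound was added for 30 min at room temperature. Titration curves gave IC50.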

IC50, 300 to 1000 nM:
Cc1noc(-c2ccc(-c3ccc(CCC(=O)O)cc3)cc2)c1C(O)COCc1cccc(C(F)(F)F)c1 (centres unmarked) [Compound 1-242, 3-(4′-{4-[1-Hydroxy-2-(3-trifluoromethyl-benzyloxy)-ethyl]-3-methyl-isoxazol-5-yl}-biphenyl-4-yl)-propionic acid]
Cc1noc(-c2ccc(-c3cccc(CC4(C(=O)O)CC4)c3)cc2)c1C(O)CCCc1ccccc1 (centres unmarked) [Compound 1-251, 1-{4′-[4-(1-Hydroxy-4-phenyl-butyl)-3-methyl-isoxazol-5-yl]-biphenyl-3-ylmethyl}-cyclopropanecarboxylic acid]
Cc1noc(-c2ccc(-c3ccc(C4(C(=O)O)CC4)cc3)cc2)c1NC1Cc2ccccc2C1 [Compound 1-271, 1-{4′-[4-(Indan-2-ylamino)-3-methyl-isoxazol-5-yl]-biphenyl-4-yl}-cyclopropanecarboxylic acid]

IC50, > 50000 nM:
Cc1noc(-c2ccc(-c3ccc(C4(CC(=O)O)CC4)cc3)cc2)c1NC(C)CCCO (centres unmarked) [Compound 1-229, (1-{4′-[4-(4-Hydroxy-1-methyl-butylamino)-3-methyl-isoxazol-5-yl]-biphenyl-4-yl}-cyclopropyl)-acetic acid]
Cc1noc(-c2ccc(-c3ccccc3CC(=O)O)cc2)c1NC(C)CCc1ccc2c(c1)OCO2 (centres unmarked) [Compound 1-232, {4′-[4-(3-Benzo[1,3]dioxol-5-yl-1-methyl-propylamino)-3-methyl-isoxazol-5-yl]-biphenyl-2-yl}-acetic acid]

IC50, < 300 nM:
Cc1noc(-c2ccc(-c3ccc(C4(CC(=O)O)CC4)cc3)cc2)c1NC(C)CCc1ccc2c(c1)OCO2 (centres unmarked) [Compound 1-233, (1-{4′-[4-(3-Benzo[1,3]dioxol-5-yl-1-methyl-propylamino)-3-methyl-isoxazol-5-yl]-biphenyl-4-yl}-cyclopropyl)-acetic acid]
Cc1noc(-c2ccc(-c3ccc(C4(CC(=O)O)CC4)cc3)cc2)c1C(O)COCc1cccc(C(F)(F)F)c1 (centres unmarked) [Compound 1-244, [1-(4′-{4-[1-Hydroxy-2-(3-trifluoromethyl-benzyloxy)-ethyl]-3-methyl-isoxazol-5-yl}-biphenyl-4-yl)-cyclopropyl]-acetic acid]
Cc1noc(-c2ccc(-c3ccc(C4(C(=O)O)CC4)cc3)cc2)c1C(O)C(=O)NCCc1ccccc1 (centres unmarked) [Compound 1-249, 1-{4′-[4-(Hydroxy-phenethylcarbamoyl-methyl)-3-methyl-isoxazol-5-yl]-biphenyl-4-yl}-cyclopropanecarboxylic acid]
Cc1noc(-c2ccc(-c3ccc(CC4(C(=O)O)CC4)cc3)cc2)c1C(O)CCCc1ccccc1 (centres unmarked) [Compound 1-250, 1-{4′-[4-(1-Hydroxy-4-phenyl-butyl)-3-methyl-isoxazol-5-yl]-biphenyl-4-ylmethyl}-cyclopropanecarboxylic acid]
Cc1noc(-c2ccc(-c3ccc(C4(C(=O)O)CC4)cc3)cc2)c1C(O)C(=O)NCc1ccccc1 (centres unmarked) [Compound 1-252, 1-{4′-[4-(Benzylcarbamoyl-hydroxy-methyl)-3-methyl-isoxazol-5-yl]-biphenyl-4-yl}-cyclopropanecarboxylic acid]
Cc1noc(-c2ccc(-c3ccc(C4(C(=O)O)CC4)cc3)cc2)c1C(O)C(=O)N[C@H](C)c1ccccc1 (stereo partly drawn) [Compound 1-253, 1-(4′-{4-[Hydroxy-((R)-1-phenyl-ethylcarbamoyl)-methyl]-3-methyl-isoxazol-5-yl}-biphenyl-4-yl)-cyclopropanecarboxylic acid]
Cc1noc(-c2ccc(-c3ccc(C4(C(=O)O)CC4)cc3)cc2)c1C(O)C(=O)N(C)Cc1ccccc1 (centres unmarked) [Compound 1-258, 1-(4′-{4-[(Benzyl-methyl-carbamoyl)-hydroxy-methyl]-3-methyl-isoxazol-5-yl}-biphenyl-4-yl)-cyclopropanecarboxylic acid]
Cc1noc(-c2ccc(-c3ccc(C4(C(=O)O)CC4)cc3)cc2)c1C(O)CCCc1cccnc1 (centres unmarked) [Compound 1-260, 1-{4′-[4-(1-Hydroxy-4-pyridin-3-yl-butyl)-3-methyl-isoxazol-5-yl]-biphenyl-4-yl}-cyclopropanecarboxylic acid]
Cc1noc(-c2ccc(-c3ccc(C4(C(=O)O)CC4)cc3)cc2)c1C(O)CCCc1ccncc1 (centres unmarked) [Compound 1-261, 1-{4′-[4-(1-Hydroxy-4-pyridin-4-yl-butyl)-3-methyl-isoxazol-5-yl]-biphenyl-4-yl}-cyclopropanecarboxylic acid]
Cc1noc(-c2ccc(-c3ccc(CC(=O)O)cc3)cc2)c1C(O)CSCc1cccc(C(F)(F)F)c1 (centres unmarked) [Compound 1-266, (4′-{4-[1-Hydroxy-2-(3-trifluoromethyl-benzylsulfanyl)-ethyl]-3-methyl-isoxazol-5-yl}-biphenyl-4-yl)-acetic acid]
Cc1noc(-c2ccc(-c3ccc(C4(C(=O)O)CC4)cc3)cc2)c1N(C)C(C)CCc1ccccc1 (centres unmarked) [Compound 1-267, 1-(4′-{3-Methyl-4-[methyl-(1-methyl-3-phenyl-propyl)-amino]-isoxazol-5-yl}-biphenyl-4-yl)-cyclopropanecarboxylic acid]
Cc1noc(-c2ccc(-c3ccc(C4(C(=O)O)CC4)cc3)cc2)c1NC1CCc2ccccc2C1 (centres unmarked) [Compound 1-270, 1-{4′-[3-Methyl-4-(1,2,3,4-tetrahydro-naphthalen-2-ylamino)-isoxazol-5-yl]-biphenyl-4-yl}-cyclopropanecarboxylic acid]
Cc1noc(-c2ccc(-c3ccc(CC(=O)O)cc3)cc2)c1[C@H](O)CSCc1ccccc1 [Compound 1-272, {4′-[4-((S)-2-Benzylsulfanyl-1-hydroxy-ethyl)-3-methyl-isoxazol-5-yl]-biphenyl-4-yl}-acetic acid]
Cc1noc(-c2ccc(-c3ccc(CCC(=O)O)cc3)cc2)c1[C@H](O)CSCc1ccccc1 [Compound 1-273, 3-{4′-[4-((S)-2-Benzylsulfanyl-1-hydroxy-ethyl)-3-methyl-isoxazol-5-yl]-biphenyl-4-yl}-propionic acid]
Cc1noc(-c2ccc(-c3ccc(CCC(=O)O)cc3)cc2)c1[C@H](O)CSCc1cccc(C(F)(F)F)c1 [Compound 1-274, 3-(4′-{4-[(S)-1-Hydroxy-2-(3-trifluoromethyl-benzylsulfanyl)-ethyl]-3-methyl-isoxazol-5-yl}-biphenyl-4-yl)-propionic acid]

IC50, 1000 to 50000 nM:
Cc1noc(-c2ccc(-c3ccc(C4(C(=O)O)CC4)cc3)cc2)c1NC(C)CCCO (centres unmarked) [Compound 1-230, 1-{4′-[4-(4-Hydroxy-1-methyl-butylamino)-3-methyl-isoxazol-5-yl]-biphenyl-4-yl}-cyclopropanecarboxylic acid]
Cc1noc(-c2ccc(-c3ccccc3CC(=O)O)cc2)c1NC(C)CCCO (centres unmarked) [Compound 1-231, {4′-[4-(4-Hydroxy-1-methyl-butylamino)-3-methyl-isoxazol-5-yl]-biphenyl-2-yl}-acetic acid]
COc1ccc(CC(C)Nc2c(C)noc2-c2ccc(-c3ccc(C4(CC(=O)O)CC4)cc3)cc2)cc1 (centres unmarked) [Compound 1-236, [1-(4′-{4-[2-(4-Methoxy-phenyl)-1-methyl-ethylamino]-3-methyl-isoxazol-5-yl}-biphenyl-4-yl)-cyclopropyl]-acetic acid]
COc1ccc(CC(C)Nc2c(C)noc2-c2ccc(-c3ccc(C4(C(=O)O)CC4)cc3)cc2)cc1 (centres unmarked) [Compound 1-237]
COc1ccc(CC(C)Nc2c(C)noc2-c2ccc(-c3ccccc3CC(=O)O)cc2)cc1 (centres unmarked) [Compound 1-238, (4′-{4-[2-(4-Methoxy-phenyl)-1-methyl-ethylamino]-3-methyl-isoxazol-5-yl}-biphenyl-2-yl)-acetic acid]
Cc1noc(-c2ccc(-c3ccc(CC(=O)O)cc3)cc2)c1C(O)COCc1cccc(C(F)(F)F)c1 (centres unmarked) [Compound 1-241, (4′-{4-[1-Hydroxy-2-(3-trifluoromethyl-benzyloxy)-ethyl]-3-methyl-isoxazol-5-yl}-biphenyl-4-yl)-acetic acid]
Cc1noc(-c2ccc(-c3ccc(C(=O)CCC(=O)O)cc3)cc2)c1C(O)CCCc1ccccc1 (centres unmarked) [Compound 1-245, 4-{4′-[4-(1-Hydroxy-4-phenyl-butyl)-3-methyl-isoxazol-5-yl]-biphenyl-4-yl}-4-oxo-butyric acid]
Cc1noc(-c2ccc(-c3ccc(C4(CC(=O)O)CC4)cc3)cc2)c1C(O)CC(C)(C)c1ccccc1 (centres unmarked) [Compound 1-246, (1-{4′-[4-(1-Hydroxy-3-methyl-3-phenyl-butyl)-3-methyl-isoxazol-5-yl]-biphenyl-4-yl}-cyclopropyl)-acetic acid]
COc1ccc(CCC(O)c2c(C)noc2-c2ccc(-c3ccc(C4(CC(=O)O)CC4)cc3)cc2)cc1 (centres unmarked) [Compound 1-247, [1-(4′-{4-[1-Hydroxy-3-(4-methoxy-phenyl)-propyl]-3-methyl-isoxazol-5-yl}-biphenyl-4-yl)-cyclopropyl]-acetic acid]
CC(=O)NC(CCCc1ccccc1)c1c(C)noc1-c1ccc(-c2ccc(C3(CC(=O)O)CC3)cc2)cc1 (centres unmarked) [Compound 1-256, (1-{4′-[4-(1-Acetylamino-4-phenyl-butyl)-3-methyl-isoxazol-5-yl]-biphenyl-4-yl}-cyclopropyl)-acetic acid]
Cc1noc(-c2ccc(-c3ccc(C4(C(=O)O)CC4)cc3)cc2)c1C(CCCc1ccccc1)NS(C)(=O)=O (centres unmarked) [Compound 1-257, 1-{4′-[4-(1-Methanesulfonylamino-4-phenyl-butyl)-3-methyl-isoxazol-5-yl]-biphenyl-4-yl}-cyclopropanecarboxylic acid]
Cc1noc(-c2ccc(-c3ccc(C4(C(=O)O)CC4)cc3)cc2)c1/C=C/S(=O)(=O)Cc1ccccc1 [Compound 1-259, 1-{4′-[3-Methyl-4-((E)-2-phenylmethanesulfonyl-vinyl)-isoxazol-5-yl]-biphenyl-4-yl}-cyclopropanecarboxylic acid]
